Test system: 941728-121-R-J1-PDC complex spheroid viability
Assay: Anticancer human tumor 941728-121-R-J1-PDC patient-derived lung adenocarcinoma cell line growth inhibition [RAS]
Details: for IC50: curve of first compound; for viability, T/C: stronger effect = lower value
Description: RAS pathway inhibitors in Combinations in Complex Spheroids
A high-throughput screen of multi-cell type tumor spheroids was designed to identify active combinations of RAS pathway inhibitors and targeted small molecules. Complex spheroids include a stromal component modeled by human endothelial cells (HUVEC) and fibroblasts modeled by human mesenchymal stem cells (MSCs). The concentration ranges selected for each drug and investigational agent were based upon clinically achievable concentrations if the clinical Cmax of the agent was known.
Compounds. The drugs and investigational agents: abemaciclib (NSC768073), cobimetinib (NSC768068), divarasib (GDC6063, NSC841802), docetaxel (NSC628503), GDC-1971 (RLY-1971, NSC841576), gemcitabine (NSC613327), inavolisib (NSC800729), ipatasertib (NSC767898), KB-0742 (NSC834161), MRTX-1133 (NSC836407), osimertinib (NSC779217), RMC-4630 (NSC839698), RMC-6236 (NSC851965), RMC-6291 (NSC852671), Ro-3306 (NSC812927), sapanisertib (NSC764658), SN-38 (NSC673596), staurosporine (NSC755774), SY5609 (NSC837396), and tovorafenib (DAY101, NSC766906), were obtained from the National Cancer Institute (NCI) Developmental Therapeutics Program Chemical Repository. The FDA-approved anticancer drug set is available from the NCI Developmental Therapeutics Program. […] The stock solutions were prepared in dimethyl sulfoxide (DMSO, Sigma-Aldrich, St. Louis, MO, cat. D2650) at 800-fold the tested concentration and stored at -70 degrees C prior to their use. All drugs and investigational agents were tested over a range starting from a high concentration at or near the clinical Cmax and decreasing in half-log increments. If the clinical Cmax for an agent had not been determined, the highest concentration tested was 10 microM.
Cell Culture. All cells were maintained in an incubator at 37 degrees C and 5% CO2 with 95% humidity. The PDC lines were cultured according to standard operating procedures established by the NCI PDMR. All PDCs were thawed and cultured in Matrigel-coated flasks prepared with a working solution of 1X Ham's F-12 nutrient mix, without supplementation (Invitrogen, Waltham, MA, cat. 11765054), 100 U/mL penicillin-streptomycin (Invitrogen, cat. 15140122), and 2.5% Matrigel (Corning Inc., Corning, NY, cat. 354248) for the first three passages. The 362531-283-R-J2-PDC and 782815-120-R-J1-PDC lines were cultured in 6C/Colon 1B media, which includes advanced DMEM/F-12 (Thermo Fisher Scientific, cat. 12634028), 10 mM HEPES (Thermo Fisher Scientific, cat. 15630080), 1X GlutaMAX supplement (Thermo Fisher Scientific, cat. 35050061), 0.1 mg/mL primocin (InvivoGen, San Diego, CA, cat. ant-pm-2), 10% defined fetal bovine serum, heat inactivated (HyClone Laboratories Inc., Logan, UT, cat. SH30070.03HI), 50% L-WRN conditioned media (ATCC, cat. CRL-3276), 1.25 mM N-Acetyl-L-cysteine (Sigma-Aldrich, cat. A9165), 10 mM nicotinamide (Sigma-Aldrich, cat. N0636), 1X B-27 supplement (Thermo Fisher Scientific, cat. 17504044), 1X N-2 supplement (Thermo Fisher Scientific, cat. 17502048), 50 ng/mL human EGF (Thermo Fisher Scientific, cat. PHG0311), and 10 microM Y-27632 dihydrochloride (Tocris Bioscience, cat. 1254). The K12877-001-R-J1-PDC line was cultured in 6I media, which includes all 6C/Colon 1B media plus 10 ng/mL human FGF-10 (PeproTech, cat. 100-26), 1 ng/mL human FGF-2 (PeproTech, cat. 100-18B), 1 µM prostaglandin E2 (Tocris Bioscience, cat. 2296), […] hydrocortisone (Sigma-Aldrich, cat. H4001), and […] bovine insulin (Sigma-Aldrich, cat. I6634). The K86415-001-R-J1-PDC line was cultured in 6D media, which includes all 6C/Colon 1B media components minus the L-WRN conditioned media. The 485176-168-R4-J1-PDC was cultured in PANC media, which includes all 6C/Colon 1B media plus 100 ng/mL human FGF-10 (PeproTech, cat. 100-26), 500 nM SB-431542 (Selleckchem, cat. S1067), and 10 nM gastrin (Tocris Bioscience, cat. 3006). […]

[1] = second compound 0.0316 µM, first compound 0.0316 µM
[2] = second compound 0.0316 µM, first compound 0.1 µM
[3] = second compound 0.1 µM, first compound 0.0316 µM
[4] = second compound 0.1 µM, first compound 0.1 µM
[5] = second compound 0.316 µM, first compound 0.0316 µM
[6] = second compound 0.316 µM, first compound 0.1 µM
[7] = second compound 1 µM, first compound 0.0316 µM
[8] = second compound 1 µM, first compound 0.1 µM
[9] = second compound 3.16 µM, first compound 0.0316 µM
[10] = second compound 3.16 µM, first compound 0.1 µM
[11] = second compound 10 µM, first compound 0.0316 µM
[12] = second compound 10 µM, first compound 0.1 µM
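Note: spheroids exposed to compounds for 7 days before readout.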
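Throughout, for viability, T/C: 100% = DMSO vehicle control viability.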

CC(C)NCC(C(=O)N1CCN(c2ncnc3c2C(C)CC3O)CC1)c1ccc(Cl)cc1 (centres undefined) + C#Cc1c(F)ccc2cc(O)cc(-c3ncc4c(N5CC6CCC(C5)N6)nc(OCC56CCCN5CC(F)C6)nc4c3F)c12
IC50 (second compound 0.0316 µM): 1.04 µM
IC50 (second compound 0.1 µM): 0.972 µM
IC50 (second compound 0.316 µM): 0.422 µM
IC50 (second compound 1 µM): < 0.0316 µM
IC50 (second compound 3.16 µM): < 0.0316 µM
IC50 (second compound 10 µM): < 0.0316 µM
viability, T/C [1]: 102%
viability, T/C [2]: 79.8%
viability, T/C (second compound 0.0316 µM, first compound 0.316 µM): 63.7%
viability, T/C (second compound 0.0316 µM, first compound 1 µM): 51.8%
viability, T/C (second compound 0.0316 µM, first compound 3.16 µM): 38.7%
viability, T/C (second compound 0.0316 µM, first compound 10 µM): 34.8%
viability, T/C [3]: 79.9%
viability, T/C [4]: 70.9%
viability, T/C (second compound 0.1 µM, first compound 0.316 µM): 61.6%
viability, T/C (second compound 0.1 µM, first compound 1 µM): 50%
viability, T/C (second compound 0.1 µM, first compound 3.16 µM): 39.3%
viability, T/C (second compound 0.1 µM, first compound 10 µM): 33.4%
viability, T/C [5]: 56.6%
viability, T/C [6]: 59.2%
viability, T/C (second compound 0.316 µM, first compound 0.316 µM): 52%
viability, T/C (second compound 0.316 µM, first compound 1 µM): 42.1%
viability, T/C (second compound 0.316 µM, first compound 3.16 µM): 35%
viability, T/C (second compound 0.316 µM, first compound 10 µM): 26.9%
viability, T/C [7]: 39.3%
viability, T/C [8]: 39.4%
viability, T/C (second compound 1 µM, first compound 0.316 µM): 35%
viability, T/C (second compound 1 µM, first compound 1 µM): 30.9%
viability, T/C (second compound 1 µM, first compound 3.16 µM): 22.9%
viability, T/C (second compound 1 µM, first compound 10 µM): 21.1%
viability, T/C [9]: 32%
viability, T/C [10]: 30.4%
viability, T/C (second compound 3.16 µM, first compound 0.316 µM): 28.7%
viability, T/C (second compound 3.16 µM, first compound 1 µM): 24.9%
viability, T/C (second compound 3.16 µM, first compound 3.16 µM): 24.6%
viability, T/C (second compound 3.16 µM, first compound 10 µM): 17.3%
viability, T/C [11]: 25.4%
viability, T/C [12]: 23.5%
viability, T/C (second compound 10 µM, first compound 0.316 µM): 22.3%
viability, T/C (second compound 10 µM, first compound 1 µM): 21.6%
viability, T/C (second compound 10 µM, first compound 3.16 µM): 17.1%
viability, T/C (second compound 10 µM, first compound 10 µM): 11.2%

CC(C)n1nc(-c2ccc3oc(N)nc3c2)c2c(N)ncnc21 + C#Cc1c(F)ccc2cc(O)cc(-c3ncc4c(N5CC6CCC(C5)N6)nc(OCC56CCCN5CC(F)C6)nc4c3F)c12
IC50 (second compound 0.0316 µM): 0.00397 µM
IC50 (second compound 0.1 µM): 0.00276 µM
IC50 (second compound 0.316 µM): 0.00126 µM
IC50 (second compound 1 µM): < 0.000316 µM
IC50 (second compound 3.16 µM): < 0.000316 µM
IC50 (second compound 10 µM): < 0.000316 µM
viability, T/C (second compound 0.0316 µM, first compound 0.000316 µM): 78.9%
viability, T/C (second compound 0.0316 µM, first compound 0.001 µM): 70.5%
viability, T/C (second compound 0.0316 µM, first compound 0.00316 µM): 51%
viability, T/C (second compound 0.0316 µM, first compound 0.01 µM): 39.2%
viability, T/C [1]: 31.6%
viability, T/C [2]: 26.3%
viability, T/C (second compound 0.1 µM, first compound 0.000316 µM): 68.5%
viability, T/C (second compound 0.1 µM, first compound 0.001 µM): 68.6%
viability, T/C (second compound 0.1 µM, first compound 0.00316 µM): 46.3%
viability, T/C (second compound 0.1 µM, first compound 0.01 µM): 33.9%
viability, T/C [3]: 27.8%
viability, T/C [4]: 26.6%
viability, T/C (second compound 0.316 µM, first compound 0.000316 µM): 60.8%
viability, T/C (second compound 0.316 µM, first compound 0.001 µM): 51.7%
viability, T/C (second compound 0.316 µM, first compound 0.00316 µM): 42%
viability, T/C (second compound 0.316 µM, first compound 0.01 µM): 34.5%
viability, T/C [5]: 26.7%
viability, T/C [6]: 26.3%
viability, T/C (second compound 1 µM, first compound 0.000316 µM): 33.6%
viability, T/C (second compound 1 µM, first compound 0.001 µM): 35.9%
viability, T/C (second compound 1 µM, first compound 0.00316 µM): 31.3%
viability, T/C (second compound 1 µM, first compound 0.01 µM): 23.7%
viability, T/C [7]: 21.1%
viability, T/C [8]: 18.8%
viability, T/C (second compound 3.16 µM, first compound 0.000316 µM): 29.4%
viability, T/C (second compound 3.16 µM, first compound 0.001 µM): 30.4%
viability, T/C (second compound 3.16 µM, first compound 0.00316 µM): 25.9%
viability, T/C (second compound 3.16 µM, first compound 0.01 µM): 20.2%
viability, T/C [9]: 18.4%
viability, T/C [10]: 15.9%
viability, T/C (second compound 10 µM, first compound 0.000316 µM): 24.1%
viability, T/C (second compound 10 µM, first compound 0.001 µM): 22.3%
viability, T/C (second compound 10 µM, first compound 0.00316 µM): 20%
viability, T/C (second compound 10 µM, first compound 0.01 µM): 15.9%
viability, T/C [11]: 11.5%
viability, T/C [12]: 9.78%
